From PubChem BioAssay (NCI)
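Each compound was tested at five concentrations against cells in 96-well plates for 48 hours. TGI is the concentration that stops growth completely.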

What was measured:
Test in all cases: NCI tumour cell line growth inhibition, 48 h
786-0 renal = test system: 786-0 renal
A498 renal = test system: A498 renal
A549 NSCLC = test system: A549 NSCLC
ACHN renal = test system: ACHN renal
BT-549 breast = test system: BT-549 breast
CAKI-1 renal = test system: CAKI-1 renal
CCRF-CEM leukemia = test system: CCRF-CEM leukemia
COLO 205 colon = test system: COLO 205 colon
DU-145 prostate = test system: DU-145 prostate
EKVX NSCLC = test system: EKVX NSCLC
HCC-2998 colon = test system: HCC-2998 colon
HCT-116 colon = test system: HCT-116 colon
HCT-15 colon = test system: HCT-15 colon
HL-60(TB) leukemia = test system: HL-60(TB) leukemia
HOP-62 NSCLC = test system: HOP-62 NSCLC
HOP-92 NSCLC = test system: HOP-92 NSCLC
HS 578T breast = test system: HS 578T breast
HT29 colon = test system: HT29 colon
K-562 leukemia = test system: K-562 leukemia
LOX IMVI melanoma = test system: LOX IMVI melanoma
M14 melanoma = test system: M14 melanoma
MALME-3M melanoma = test system: MALME-3M melanoma
MCF7 breast = test system: MCF7 breast
MDA-MB-231 breast = test system: MDA-MB-231 breast
MDA-MB-435 = test system: MDA-MB-435
MDA-N = test system: MDA-N
MOLT-4 leukemia = test system: MOLT-4 leukemia
NCI-H226 lung = test system: NCI-H226 lung
NCI-H23 lung = test system: NCI-H23 lung
NCI-H460 lung = test system: NCI-H460 lung
NCI-H522 lung = test system: NCI-H522 lung
NCI/ADR-RES ovarian = test system: NCI/ADR-RES ovarian
OVCAR-3 ovarian = test system: OVCAR-3 ovarian
OVCAR-4 ovarian = test system: OVCAR-4 ovarian
OVCAR-5 ovarian = test system: OVCAR-5 ovarian
OVCAR-8 ovarian = test system: OVCAR-8 ovarian
PC-3 prostate = test system: PC-3 prostate
RPMI-8226 leukemia = test system: RPMI-8226 leukemia
RXF 393 renal = test system: RXF 393 renal
SF-268 CNS = test system: SF-268 CNS
SF-295 CNS = test system: SF-295 CNS
SF-539 CNS = test system: SF-539 CNS
SK-MEL-2 melanoma = test system: SK-MEL-2 melanoma
SK-MEL-28 melanoma = test system: SK-MEL-28 melanoma
SK-MEL-5 melanoma = test system: SK-MEL-5 melanoma
SK-OV-3 ovarian = test system: SK-OV-3 ovarian
SN12C renal = test system: SN12C renal
SNB-19 CNS = test system: SNB-19 CNS
SNB-75 CNS = test system: SNB-75 CNS
SR leukemia = test system: SR leukemia
SW-620 colon = test system: SW-620 colon
T-47D breast = test system: T-47D breast
TK-10 renal = test system: TK-10 renal
U251 CNS = test system: U251 CNS
UACC-257 melanoma = test system: UACC-257 melanoma
UACC-62 melanoma = test system: UACC-62 melanoma
UO-31 renal = test system: UO-31 renal
IGROV1 ovarian = test system: IGROV1 ovarian
KM12 colon = test system: KM12 colon

Question: How did the TGI (786-0 renal) turn out when `Cc1cc(C)c(/C=C2\C(=O)Nc3ccccc32)[nH]1` was run?
Answer: > 100 µM

Question: What about the TGI (A498 renal) of the same compound?
Answer: > 100 µM

Question: What about the TGI (A549 NSCLC) of the same compound?
Answer: > 100 µM

Question: And the TGI (ACHN renal)?
Answer: > 100 µM

Question: And the TGI (BT-549 breast)?
Answer: > 100 µM

Question: And the TGI (CAKI-1 renal)?
Answer: > 100 µM

Question: And the TGI (CCRF-CEM leukemia)?
Answer: > 100 µM

Question: What about the TGI (COLO 205 colon) of the same compound?
Answer: > 100 µM

Question: What about the TGI (DU-145 prostate) of the same compound?
Answer: > 100 µM

Question: What about the TGI (EKVX NSCLC) of the same compound?
Answer: > 100 µM

Question: And the TGI (HCC-2998 colon)?
Answer: > 100 µM

Question: And the TGI (HCT-116 colon)?
Answer: > 100 µM

Question: What about the TGI (HCT-15 colon) of the same compound?
Answer: > 100 µM

Question: And the TGI (HL-60(TB) leukemia)?
Answer: > 34.1 µM

Question: And the TGI (HOP-62 NSCLC)?
Answer: > 100 µM

Question: And the TGI (HOP-92 NSCLC)?
Answer: > 100 µM

Question: What about the TGI (HS 578T breast) of the same compound?
Answer: > 100 µM

Question: What about the TGI (HT29 colon) of the same compound?
Answer: > 100 µM

Question: And the TGI (K-562 leukemia)?
Answer: > 100 µM

Question: And the TGI (LOX IMVI melanoma)?
Answer: > 100 µM

Question: What about the TGI (M14 melanoma) of the same compound?
Answer: > 100 µM

Question: What about the TGI (MALME-3M melanoma) of the same compound?
Answer: > 100 µM

Question: What about the TGI (MCF7 breast) of the same compound?
Answer: > 100 µM

Question: What about the TGI (MDA-MB-231 breast) of the same compound?
Answer: > 100 µM

Question: What about the TGI (MDA-MB-435) of the same compound?
Answer: > 100 µM

Question: What about the TGI (MDA-N) of the same compound?
Answer: > 100 µM

Question: What about the TGI (MOLT-4 leukemia) of the same compound?
Answer: > 100 µM

Question: What about the TGI (NCI-H226 lung) of the same compound?
Answer: > 100 µM

Question: What about the TGI (NCI-H23 lung) of the same compound?
Answer: > 100 µM

Question: What about the TGI (NCI-H460 lung) of the same compound?
Answer: > 100 µM

Question: And the TGI (NCI-H522 lung)?
Answer: > 100 µM

Question: And the TGI (NCI/ADR-RES ovarian)?
Answer: > 100 µM

Question: What about the TGI (OVCAR-3 ovarian) of the same compound?
Answer: > 100 µM

Question: What about the TGI (OVCAR-4 ovarian) of the same compound?
Answer: > 100 µM

Question: What about the TGI (OVCAR-5 ovarian) of the same compound?
Answer: > 100 µM

Question: What about the TGI (OVCAR-8 ovarian) of the same compound?
Answer: > 100 µM

Question: What about the TGI (PC-3 prostate) of the same compound?
Answer: > 100 µM

Question: And the TGI (RPMI-8226 leukemia)?
Answer: > 100 µM

Question: What about the TGI (RXF 393 renal) of the same compound?
Answer: > 100 µM

Question: And the TGI (SF-268 CNS)?
Answer: > 100 µM

Question: And the TGI (SF-295 CNS)?
Answer: > 100 µM

Question: And the TGI (SF-539 CNS)?
Answer: > 100 µM

Question: What about the TGI (SK-MEL-2 melanoma) of the same compound?
Answer: > 100 µM

Question: And the TGI (SK-MEL-28 melanoma)?
Answer: > 100 µM

Question: And the TGI (SK-MEL-5 melanoma)?
Answer: > 100 µM

Question: And the TGI (SK-OV-3 ovarian)?
Answer: > 100 µM

Question: What about the TGI (SN12C renal) of the same compound?
Answer: > 100 µM

Question: What about the TGI (SNB-19 CNS) of the same compound?
Answer: > 100 µM

Question: What about the TGI (SNB-75 CNS) of the same compound?
Answer: > 100 µM

Question: And the TGI (SR leukemia)?
Answer: > 100 µM

Question: And the TGI (SW-620 colon)?
Answer: > 100 µM

Question: What about the TGI (T-47D breast) of the same compound?
Answer: > 100 µM

Question: What about the TGI (TK-10 renal) of the same compound?
Answer: > 100 µM

Question: What about the TGI (U251 CNS) of the same compound?
Answer: > 100 µM

Question: And the TGI (UACC-257 melanoma)?
Answer: > 100 µM

Question: And the TGI (UACC-62 melanoma)?
Answer: > 100 µM

Question: And the TGI (UO-31 renal)?
Answer: > 100 µM

Question: Which TGI (786-0 renal) does the source give for `Cn1cc(NC(=O)Nc2cc(C(=O)Nc3cc(C(=O)Nc4ccc5cc(S(=O)(=O)O)cc(S(=O)(=O)O)c5c4)n(C)c3)n(C)c2)cc1C(=O)Nc1cc(C(=O)Nc2ccc3cc(S(=O)(=O)O)cc(S(=O)(=O)O)c3c2)n(C)c1` here?
Answer: > 100 µM

Question: What about the TGI (A549 NSCLC) of the same compound?
Answer: > 100 µM

Question: And the TGI (ACHN renal)?
Answer: > 100 µM

Question: What about the TGI (BT-549 breast) of the same compound?
Answer: > 100 µM

Question: What about the TGI (CCRF-CEM leukemia) of the same compound?
Answer: > 100 µM

Question: What about the TGI (COLO 205 colon) of the same compound?
Answer: > 100 µM

Question: And the TGI (DU-145 prostate)?
Answer: > 100 µM

Question: What about the TGI (EKVX NSCLC) of the same compound?
Answer: > 100 µM

Question: What about the TGI (HCC-2998 colon) of the same compound?
Answer: > 100 µM

Question: And the TGI (HCT-116 colon)?
Answer: > 100 µM

Question: What about the TGI (HCT-15 colon) of the same compound?
Answer: > 100 µM

Question: And the TGI (HL-60(TB) leukemia)?
Answer: > 100 µM

Question: And the TGI (HOP-62 NSCLC)?
Answer: > 100 µM

Question: What about the TGI (HOP-92 NSCLC) of the same compound?
Answer: > 100 µM

Question: What about the TGI (HS 578T breast) of the same compound?
Answer: > 100 µM

Question: What about the TGI (HT29 colon) of the same compound?
Answer: > 100 µM

Question: And the TGI (IGROV1 ovarian)?
Answer: > 100 µM

Question: What about the TGI (K-562 leukemia) of the same compound?
Answer: > 100 µM

Question: What about the TGI (KM12 colon) of the same compound?
Answer: > 100 µM

Question: What about the TGI (LOX IMVI melanoma) of the same compound?
Answer: > 100 µM

Question: What about the TGI (M14 melanoma) of the same compound?
Answer: > 100 µM

Question: What about the TGI (MALME-3M melanoma) of the same compound?
Answer: > 100 µM

Question: What about the TGI (MCF7 breast) of the same compound?
Answer: > 100 µM

Question: What about the TGI (MDA-MB-231 breast) of the same compound?
Answer: > 100 µM

Question: And the TGI (MDA-MB-435)?
Answer: > 100 µM

Question: What about the TGI (MDA-N) of the same compound?
Answer: > 100 µM

Question: And the TGI (MOLT-4 leukemia)?
Answer: > 100 µM

Question: What about the TGI (NCI-H226 lung) of the same compound?
Answer: > 100 µM

Question: And the TGI (NCI-H23 lung)?
Answer: > 100 µM

Question: What about the TGI (NCI-H460 lung) of the same compound?
Answer: > 100 µM

Question: What about the TGI (NCI-H522 lung) of the same compound?
Answer: > 100 µM

Question: What about the TGI (NCI/ADR-RES ovarian) of the same compound?
Answer: > 100 µM

Question: What about the TGI (OVCAR-3 ovarian) of the same compound?
Answer: > 100 µM

Question: And the TGI (OVCAR-4 ovarian)?
Answer: > 100 µM

Question: And the TGI (OVCAR-5 ovarian)?
Answer: > 100 µM

Question: What about the TGI (OVCAR-8 ovarian) of the same compound?
Answer: > 100 µM

Question: And the TGI (PC-3 prostate)?
Answer: > 100 µM

Question: What about the TGI (RPMI-8226 leukemia) of the same compound?
Answer: > 100 µM

Question: What about the TGI (RXF 393 renal) of the same compound?
Answer: > 100 µM

Question: And the TGI (SF-268 CNS)?
Answer: > 100 µM

Question: And the TGI (SF-295 CNS)?
Answer: > 100 µM

Question: And the TGI (SF-539 CNS)?
Answer: > 100 µM

Question: What about the TGI (SK-MEL-28 melanoma) of the same compound?
Answer: > 100 µM

Question: And the TGI (SK-MEL-5 melanoma)?
Answer: > 100 µM

Question: And the TGI (SK-OV-3 ovarian)?
Answer: > 100 µM

Question: What about the TGI (SN12C renal) of the same compound?
Answer: > 100 µM

Question: What about the TGI (SNB-19 CNS) of the same compound?
Answer: > 100 µM

Question: And the TGI (SNB-75 CNS)?
Answer: > 100 µM

Question: What about the TGI (SR leukemia) of the same compound?
Answer: > 100 µM

Question: And the TGI (SW-620 colon)?
Answer: > 100 µM

Question: What about the TGI (T-47D breast) of the same compound?
Answer: > 100 µM

Question: And the TGI (TK-10 renal)?
Answer: > 100 µM

Question: And the TGI (U251 CNS)?
Answer: > 100 µM

Question: What about the TGI (UACC-257 melanoma) of the same compound?
Answer: > 100 µM

Question: And the TGI (UACC-62 melanoma)?
Answer: > 100 µM

Question: And the TGI (UO-31 renal)?
Answer: > 100 µM
